# Test results from ChEMBL document CHEMBL4152355, “Novel multi-target compounds in the quest for new chemotherapies against Alzheimer's disease: An experimental and theoretical study” (Bioorg Med Chem, 2018).
# The source made the active and inactive calls. No cut-off for these calls is given here.
# What was measured:
# [1] = Antioxidant activity assessed as AAPH radical scavenging activity at 1 to 16 uM by ORAC assay; assay type: functional
# [2] = Disaggregation of Cu2+ induced amyloid beta (1 to 40) preformed fibrils assessed as fluorescence emission at 100 uM after 12 days by thioflavin-T based assay (reference value: 150.21 +/- 2.32)
# [3] = Cytotoxicity against human HEK293 cells assessed as decrease in cell viability after 48 hrs by MTT assay; assay type: cell-based; conditions: read-out: LD50
# [4] = test system: HEK293; assay: Cytotoxicity against human HEK293 cells assessed as decrease in cell viability after 48 hrs by MTT assay relative to resveratrol; assay type: cell-based; conditions: hek293, 48 h
# [5] = Metal chelating activity assessed as compound-Cu2+ adduct formation by spectrophotometric analysis
# [6] = Metal chelating activity assessed as compound-Cu2+ adduct formation at 20 uM by spectrophotometric titration analysis
# [7] = biological target: Amyloid-beta precursor protein (Homo sapiens) (UniProt P05067); assay: Inhibition of self-induced amyloid beta (1 to 40) (unknown origin) fibril aggregation assessed as aggregation level at 100 uM measured on day 7 by UV-visible turbidity method; design: scale not given: the % may be the effect or the level left
# [8] = biological target: Amyloid-beta precursor protein (Homo sapiens) (UniProt P05067); assay: Inhibition of self-induced amyloid beta (1 to 40) (unknown origin) fibril aggregation assessed as fluorescence emission at 100 uM measured on day 10 by thioflavin-T based assay; design: reference not given here
# [9] = Metal chelating activity assessed as inhibition of Cu2+ induced amyloid beta (1 to 40) aggregation by measuring decrease in ROS production at 2 equiv after 75 mins by fluorescence assay
# [10] = biological target: Amyloid-beta precursor protein (Homo sapiens) (UniProt P05067); assay: Disaggregation of self-induced amyloid beta (1 to 40) (unknown origin) preformed fibrils assessed as aggregation level at 100 uM after 4 days by UV-visible turbidity method
# [11] = biological target: T1, Beta-secretase 1 (Homo sapiens, UniProt P56817); assay: Inhibition of BACE 1 (unknown origin) at 50 uM using Rh-EVNLDAEFK-Quencher as substrate after 1 hr by FRET assay relative to control
# [12] = Inhibition of Cu2+ induced amyloid beta (1 to 40) fibril aggregation assessed as aggregation level at 100 uM measured on day 10 by UV-visible turbidity method (reference value: 100 +/- 8.72%); design: scale not given: the % may be the effect or the level left
# [13] = Inhibition of Cu2+ induced amyloid beta (1 to 40) fibril aggregation assessed as aggregation level at 100 uM measured on day 7 by UV-visible turbidity method (reference value: 100 +/- 0.96%); design: scale not given: the % may be the effect or the level left
# [14] = biological target: T1, Beta-secretase 1; assay: Inhibition of BACE 1 (unknown origin) using 250 nM of Rh-EVNLDAEFK-Quencher as substrate after 1 hr by FRET assay
# [15] = biological target: Amyloid-beta precursor protein (Homo sapiens) (UniProt P05067); assay: Disaggregation of self-induced amyloid beta (1 to 40) (unknown origin) preformed fibrils assessed as aggregation level at 100 uM after 12 days by UV-visible turbidity method
# [16] = Disaggregation of Cu2+ induced amyloid beta (1 to 40) preformed fibrils assessed as aggregation level at 100 uM after 4 days by UV-visible turbidity method (reference value: 143.11 +/- 0.76%)
# [17] = Disaggregation of Cu2+ induced amyloid beta (1 to 40) preformed fibrils assessed as fluorescence emission at 100 uM after 4 days by thioflavin-T based assay (reference value: 178.07 +/- 17.24)
# [18] = biological target: Amyloid-beta precursor protein (Homo sapiens) (UniProt P05067); assay: Induction of amyloid beta (1 to 40) (unknown origin) amorphous aggregation at 100 uM after 10 days
# [19] = biological target: Amyloid-beta precursor protein (Homo sapiens) (UniProt P05067); assay: Inhibition of self-induced amyloid beta (1 to 40) (unknown origin) fibril aggregation assessed as aggregation level at 100 uM measured on day 3 by UV-visible turbidity method; design: scale not given: the % may be the effect or the level left
# [20] = Inhibition of Cu2+ induced amyloid beta (1 to 40) fibril aggregation assessed as fluorescence emission at 100 uM measured on day 3 by thioflavin-T based assay (reference value: 33.64 +/- 5.80)
# [21] = Inhibition of Cu2+ induced amyloid beta (1 to 40) fibril aggregation assessed as fluorescence emission at 100 uM measured on day 10 by thioflavin-T based assay (reference value: 412.11 +/- 35.93)
# [22] = test system: Tetrahymena thermophila; assay: Toxicity in Tetrahymena thermophila assessed as decrease in viability after 48 hrs by MTT assay relative to resveratrol; assay type: organism-based; conditions: in vivo
# [23] = Inhibition of Cu2+ induced amyloid beta (1 to 40) fibril aggregation assessed as fluorescence emission at 100 uM measured on day 7 by thioflavin-T based assay (reference value: 181.04 +/- 1.74)
# [24] = biological target: Amyloid-beta precursor protein (Homo sapiens) (UniProt P05067); assay: Disaggregation of self-induced amyloid beta (1 to 40) (unknown origin) preformed fibrils assessed as fluorescence emission at 100 uM after 12 days by thioflavin-T based assay; design: reference not given here
# [25] = biological target: Amyloid-beta precursor protein (Homo sapiens) (UniProt P05067); assay: Inhibition of self-induced amyloid beta (1 to 40) (unknown origin) fibril aggregation assessed as fluorescence emission at 100 uM measured on day 3 by thioflavin-T based assay
# [26] = biological target: T1, Beta-secretase 1; assay: Inhibition of BACE 1 (unknown origin) at 10 to 50 uM using Rh-EVNLDAEFK-Quencher as substrate after 1 hr by FRET assay relative to control
# [27] = Disaggregation of Cu2+ induced amyloid beta (1 to 40) preformed fibrils assessed as aggregation level at 100 uM after 12 days by UV-visible turbidity method (reference value: 120.73 +/- 1.86%)
# [28] = biological target: Amyloid-beta precursor protein (Homo sapiens) (UniProt P05067); assay: Disaggregation of self-induced amyloid beta (1 to 40) (unknown origin) preformed fibrils assessed as fluorescence emission at 100 uM after 4 days by thioflavin-T based assay; design: reference not given here
# [29] = biological target: Amyloid-beta precursor protein (Homo sapiens) (UniProt P05067); assay: Inhibition of self-induced amyloid beta (1 to 40) (unknown origin) fibril aggregation assessed as aggregation level at 100 uM measured on day 10 by UV-visible turbidity method; design: scale not given: the % may be the effect or the level left
# [30] = Inhibition of Cu2+ induced amyloid beta (1 to 40) fibril aggregation assessed as aggregation level at 100 uM measured on day 3 by UV-visible turbidity method (reference value: 100 +/- 17.24%); design: scale not given: the % may be the effect or the level left
# [31] = Toxicity in Tetrahymena thermophila assessed as decrease in viability after 48 hrs by MTT assay; assay type: organism-based; conditions: Tetrahymena thermophila cells, read-out: LD50
# [32] = biological target: Amyloid-beta precursor protein (Homo sapiens) (UniProt P05067); assay: Inhibition of self-induced amyloid beta (1 to 40) (unknown origin) fibril aggregation assessed as fluorescence emission at 100 uM measured on day 7 by thioflavin-T based assay
# [33] = biological target: T1, Beta-secretase 1; assay: Inhibition of BACE 1 (unknown origin) using 500 nM of Rh-EVNLDAEFK-Quencher as substrate after 1 hr by FRET assay
# [34] = Antioxidant activity assessed as AAPH radical scavenging activity up to 64 uM by ORAC assay; assay type: functional
# T1 sequence (P56817 whole entry): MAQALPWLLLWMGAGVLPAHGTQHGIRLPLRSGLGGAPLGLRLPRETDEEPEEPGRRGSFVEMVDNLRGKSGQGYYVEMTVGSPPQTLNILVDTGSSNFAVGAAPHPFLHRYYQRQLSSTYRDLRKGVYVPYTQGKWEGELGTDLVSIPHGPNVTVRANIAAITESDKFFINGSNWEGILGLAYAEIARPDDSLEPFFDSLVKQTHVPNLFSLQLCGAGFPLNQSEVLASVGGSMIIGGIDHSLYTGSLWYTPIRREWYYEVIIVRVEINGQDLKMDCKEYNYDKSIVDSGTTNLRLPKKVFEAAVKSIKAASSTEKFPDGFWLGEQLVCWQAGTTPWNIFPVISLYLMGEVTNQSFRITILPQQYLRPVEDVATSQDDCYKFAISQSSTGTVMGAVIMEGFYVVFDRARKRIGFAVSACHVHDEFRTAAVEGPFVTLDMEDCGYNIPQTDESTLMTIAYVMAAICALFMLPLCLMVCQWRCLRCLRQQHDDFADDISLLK
# Amyloid-beta precursor protein (Homo sapiens), sequence (P05067 whole entry): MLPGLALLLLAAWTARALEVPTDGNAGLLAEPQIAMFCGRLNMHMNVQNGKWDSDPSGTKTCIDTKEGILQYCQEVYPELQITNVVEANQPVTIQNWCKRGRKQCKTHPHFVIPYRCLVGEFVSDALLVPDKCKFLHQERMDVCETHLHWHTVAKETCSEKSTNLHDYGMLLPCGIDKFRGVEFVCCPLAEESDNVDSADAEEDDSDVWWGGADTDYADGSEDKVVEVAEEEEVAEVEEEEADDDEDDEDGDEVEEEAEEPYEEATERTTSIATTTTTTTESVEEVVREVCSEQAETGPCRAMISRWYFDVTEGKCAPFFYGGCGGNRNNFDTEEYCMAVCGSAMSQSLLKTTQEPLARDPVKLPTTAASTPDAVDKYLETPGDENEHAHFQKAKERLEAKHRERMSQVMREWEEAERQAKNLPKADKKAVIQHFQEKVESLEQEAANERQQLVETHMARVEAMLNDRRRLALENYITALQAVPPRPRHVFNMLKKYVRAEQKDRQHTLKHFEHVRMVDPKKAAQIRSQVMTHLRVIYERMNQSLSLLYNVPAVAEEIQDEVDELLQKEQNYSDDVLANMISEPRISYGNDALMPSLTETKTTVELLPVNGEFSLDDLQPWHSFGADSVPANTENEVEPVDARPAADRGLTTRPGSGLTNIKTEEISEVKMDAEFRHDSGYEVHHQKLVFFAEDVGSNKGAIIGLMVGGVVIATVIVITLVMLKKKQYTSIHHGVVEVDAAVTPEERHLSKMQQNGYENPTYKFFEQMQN
SMILES,ORAC (Trolox equivalents) [1],Flu intensity [2],CC50 at 48 h [3],Activity [7],Flu intensity [8],inhibition [9],inhibition [11],Activity [12],Activity [13],Activity [15],Activity [16],Flu intensity [17],Activity [19],Flu intensity [20],Flu intensity [21],Flu intensity [23],Flu intensity [24],Flu intensity [25],Activity [27],Flu intensity [28],other results
O=C1O[C@H]([C@@H](O)CO)C(O)=C1O,62.2,–,–,–,–,–,–,–,–,–,–,–,–,–,–,–,–,–,–,–,–
Oc1ccc(/C=N/CCn2ccc3cccnc32)c(O)c1,8.13,74.3,280 µM,94%,344,71.9%,31.6%,44.9%,129%,85.9%,85.4%,106,124%,227,185,233,219,310,59.7%,226,fold change (FC) [4]: 3.9; Activity [5]: Active; logKa [6]: 12.7; Activity [10]: 88.4%; IC50 [14]: 107 µM; Activity [18]: 6 to 33%; fold change (FC) [22]: 2.5; inhibition [26]: < 50%; Activity [29]: 84.2%; Activity [30]: 673%; LC50 at 48 h [31]: 610 µM; Flu intensity [32]: 368
Oc1ccc(/C=N/CCn2ccc3ccccc32)c(O)c1,5.22,59,193 µM,86%,298,68.5%,100%,37.6%,112%,71.8%,58.6%,73,109%,243,155,203,183,273,47.5%,213,fold change (FC) [4]: 2.7; Activity [5]: Active; logKa [6]: 13.4; IC50 [33]: 5.7 µM; Activity [10]: 83.2%; IC50 [14]: 4.4 µM; Activity [18]: 6 to 33%; fold change (FC) [22]: 2.3; inhibition [26]: < 50%; Activity [29]: 73%; Activity [30]: 722%; LC50 at 48 h [31]: 556 µM; Flu intensity [32]: 336
Oc1ccc(/C=C/c2cc(O)cc(O)c2)cc1 [RESVERATROL],1.7,25.2,71.3 µM,75.2%,251,9%,–,6.63%,35.9%,44.5%,23.9%,29.8,108%,74.7,27.3,65,114,272,20.2%,230,Activity [30]: 222%; LC50 at 48 h [31]: 240 µM; Flu intensity [32]: 294
Cl.Oc1ccc(/C=N/CCNCCn2cnc3ccccc32)c(O)c1,1.42,48,184 µM,57.5%,282,93.7%,62.5%,23.1%,58.5%,62.6%,48.5%,60.4,65.6%,110,95,106,160,165,38.6%,184,fold change (FC) [4]: 2.6; Activity [5]: Active; logKa [6]: 14.8; IC50 [33]: 18.5 µM; Activity [10]: 72.2%; IC50 [14]: 15.6 µM; Activity [18]: 6 to 33%; fold change (FC) [22]: 2.2; inhibition [26]: < 50%; Activity [29]: 69%; Activity [30]: 328%; LC50 at 48 h [31]: 529 µM; Flu intensity [32]: 225
C[C@@]1(c2cc(-c3cncnc3)c(F)cc2F)CCSC(N)=N1,–,–,–,–,–,–,100%,–,–,–,–,–,–,–,–,–,–,–,–,–,–
Cl.Nc1ncnc2c1ncn2CCNCC/N=C/c1ccc(O)cc1O,2.39,38.4,336 µM,90.9%,367,97.5%,59.2%,32.7%,94.8%,88.4%,48.9%,60.9,98.2%,100,135,172,226,247,30.9%,246,fold change (FC) [4]: 4.7; Activity [5]: Active; logKa [6]: 14.8; IC50 [33]: 42 µM; Activity [10]: 96.3%; IC50 [14]: 41.4 µM; Activity [18]: 6 to 33%; fold change (FC) [22]: 3.4; inhibition [26]: < 50%; Activity [29]: 89.8%; Activity [30]: 299%; LC50 at 48 h [31]: 811 µM; Flu intensity [32]: 356
Oc1ccccc1/C=N/CCNc1ccnc2cc(Cl)ccc12,2.33,68.2,113 µM,117%,286,57.9%,29.6%,39.1%,98.5%,90%,78%,97,137%,138,161,178,230,344,54.8%,262,fold change (FC) [4]: 1.6; Activity [5]: Active; logKa [6]: 15.3; Activity [10]: 102%; IC50 [14]: > 160 µM; Activity [18]: 6 to 33%; Activity [29]: 94.3%; Activity [30]: 410%; Flu intensity [32]: 458
CCN(CC)CCCC(C)Nc1ccnc2cc(Cl)ccc12 (stereo not drawn),–,–,–,–,–,–,–,–,–,–,–,–,–,–,–,–,–,–,–,–,inhibition [26]: < 50%
O=C(NCCNc1ccnc2cc(Cl)ccc12)c1cnccn1,–,71.7,113 µM,181%,767,36.2%,91%,47.2%,135%,87.8%,87.7%,109,125%,41.7,195,245,224,313,57.6%,289,fold change (FC) [4]: 1.6; Activity [34]: inactive; logKa [6]: inactive; IC50 [33]: 9.9 µM; Activity [10]: 113%; IC50 [14]: 1.7 µM; Activity [29]: 188%; Activity [30]: 124%; Flu intensity [32]: 707
